Measurements: patent US20100273814A1, “((PHENYL)IMIDAZOLYL)METHYLHETEROARYL COMPOUNDS” (priority 2007, published 2010)
Read-outs that look alike come from different tables or passages of the source.

What was measured:
Format in all cases: cell-based
alpha2B receptor = biological target: T1, alpha2B receptor (Homo sapiens, UniProt P18089); test: Receptor Selection and Amplification Technology (RSAT) assay, alpha2B; details: for Alpha 2B intrinsic activity (efficacy): ratio of maximal effect to that of standard full agonist brimonidine (UK14304), value in brackets
T1 construct: expressed in transfected cells; host or cells: NIH-3T3 cells
T1 sequence (P18089 1-450): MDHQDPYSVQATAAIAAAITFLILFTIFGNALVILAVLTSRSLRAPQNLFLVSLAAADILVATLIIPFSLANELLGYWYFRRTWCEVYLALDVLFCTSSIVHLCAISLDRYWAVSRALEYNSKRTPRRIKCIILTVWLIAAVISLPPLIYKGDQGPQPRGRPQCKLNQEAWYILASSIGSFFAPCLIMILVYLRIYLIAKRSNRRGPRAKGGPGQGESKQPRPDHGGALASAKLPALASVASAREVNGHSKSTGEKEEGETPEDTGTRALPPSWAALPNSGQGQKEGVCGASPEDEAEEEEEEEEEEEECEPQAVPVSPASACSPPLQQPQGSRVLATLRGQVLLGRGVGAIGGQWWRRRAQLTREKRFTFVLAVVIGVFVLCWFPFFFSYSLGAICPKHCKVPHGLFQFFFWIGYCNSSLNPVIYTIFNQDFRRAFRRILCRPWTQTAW
Procedure: (§1) Receptor Selection and Amplification Technology (RSAT) Assay
(§2) The RSAT assay measures a receptor-mediated loss of contact inhibition that results in selective proliferation of receptor-containing cells in a mixed population of confluent cells. The increase in cell number is assessed with an appropriate transfected marker gene such as β-galactosidase, the activity of which can be easily measured in a 96-well format. Receptors that activate the G protein, Gq, elicit this response. Alpha2 receptors, which normally couple to Gi, activate the RSAT response when coexpressed with a hybrid Gq protein that has a Gi receptor recognition domain, called Gq/i5.
(§3) NIH-3T3 cells are plated at a density of 2×10^6 cells in 15 cm dishes and maintained in Dulbecco's modified Eagle's medium supplemented with 10% calf serum. One day later, cells are cotransfected by calcium phosphate precipitation with mammalian expression plasmids encoding p-SV-β-galactosidase (5-10 μg), receptor (1-2 μg) and G protein (1-2 μg). 40 μg salmon sperm DNA may also be included in the transfection mixture. Fresh media is added on the following day and 1-2 days later, cells are harvested and frozen in 50 assay aliquots. Cells are thawed and […] added to 100 aliquots of various concentrations of drugs in triplicate in 96-well dishes. Incubations continue 72-96 hr at 37° C. After washing with phosphate-buffered saline, β-galactosidase enzyme activity is determined by adding 200 μl of the chromogenic substrate (consisting of 3.5 mM o-nitrophenyl-β-D-galactopyranoside and 0.5% nonidet P-40 in phosphate buffered saline), incubating overnight at 30° C. and measuring optical density at 420 nm. The absorbance is a measure of enzyme activity, which depends on cell number and reflects a receptor-mediated cell proliferation. The efficacy or intrinsic activity is calculated as a ratio of the maximal effect of the drug to the maximal effect of a standard full agonist for each receptor subtype. Brimonidine, also called UK14304, the chemical structure of which is shown below, is used as the standard agonist for the alpha2A, alpha2B and alpha2C receptors. The EC50 is the concentration at which the drug effect is half of its maximal effect.
(§4) EC50 values are nanomolar. ND stands for “not determinable” at concentrations less than 10 micromolar. IA stands for “intrinsic activity.”

alpha2C receptor = biological target: T2, alpha2C receptor (Homo sapiens, UniProt P18825); test: Receptor Selection and Amplification Technology (RSAT) assay, alpha2C; details: for Alpha 2C intrinsic activity (efficacy): ratio of maximal effect to that of standard full agonist brimonidine (UK14304), value in brackets
T2 construct: expressed in transfected cells; host or cells: NIH-3T3 cells
T2 sequence (P18825 1-462): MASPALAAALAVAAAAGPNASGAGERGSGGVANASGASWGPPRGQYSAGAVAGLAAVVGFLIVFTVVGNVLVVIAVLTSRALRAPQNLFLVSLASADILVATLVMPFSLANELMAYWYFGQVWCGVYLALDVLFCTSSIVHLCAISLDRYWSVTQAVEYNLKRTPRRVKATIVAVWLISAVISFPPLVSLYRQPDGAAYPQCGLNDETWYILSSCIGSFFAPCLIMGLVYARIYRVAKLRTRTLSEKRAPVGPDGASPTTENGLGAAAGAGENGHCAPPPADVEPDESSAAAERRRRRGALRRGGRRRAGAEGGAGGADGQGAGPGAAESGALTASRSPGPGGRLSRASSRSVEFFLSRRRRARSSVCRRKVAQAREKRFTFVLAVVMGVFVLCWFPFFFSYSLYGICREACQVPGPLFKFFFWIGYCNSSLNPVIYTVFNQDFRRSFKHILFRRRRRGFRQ
Procedure: as §1, §2, §3, §4

alpha2A receptor = biological target: T3, alpha2A receptor (Homo sapiens, UniProt P08913); test: Receptor Selection and Amplification Technology (RSAT) assay, alpha2A; details: for Alpha 2A intrinsic activity (efficacy): ratio of maximal effect to that of standard full agonist brimonidine (UK14304), value in brackets
T3 construct: expressed in transfected cells; host or cells: NIH-3T3 cells
T3 sequence (P08913 1-465): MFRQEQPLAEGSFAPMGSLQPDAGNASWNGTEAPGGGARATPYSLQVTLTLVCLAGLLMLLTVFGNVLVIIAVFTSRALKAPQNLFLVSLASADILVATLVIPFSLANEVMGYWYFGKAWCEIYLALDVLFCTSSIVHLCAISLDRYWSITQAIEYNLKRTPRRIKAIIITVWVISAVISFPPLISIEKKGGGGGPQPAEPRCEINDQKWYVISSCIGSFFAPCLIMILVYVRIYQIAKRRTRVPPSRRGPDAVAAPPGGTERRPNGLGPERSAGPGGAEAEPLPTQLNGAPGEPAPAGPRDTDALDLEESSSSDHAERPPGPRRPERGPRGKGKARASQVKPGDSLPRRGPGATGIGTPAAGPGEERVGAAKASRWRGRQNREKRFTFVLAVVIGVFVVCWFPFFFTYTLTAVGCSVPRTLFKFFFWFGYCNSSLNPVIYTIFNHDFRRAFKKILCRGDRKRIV
Procedure: as §1, §2, §3, §4

[1] = RSAT, transfected NIH-3T3 cells, value outside brackets, read-out: Alpha 2B EC50 (potency)
[2] = RSAT, transfected NIH-3T3 cells, value outside brackets, read-out: Alpha 2C EC50 (potency)
[3] = RSAT, transfected NIH-3T3 cells, value outside brackets, read-out: Alpha 2A EC50 (potency)

| Compound | EC50 (alpha2B receptor; [1]) [µM] | Alpha 2B intrinsic activity (efficacy) (alpha2B receptor; RSAT) | EC50 (alpha2C receptor; [2]) [µM] | Alpha 2C intrinsic activity (efficacy) (alpha2C receptor; RSAT) | EC50 (alpha2A receptor; [3]) [µM] | Alpha 2A intrinsic activity (efficacy) (alpha2A receptor; RSAT) | EC50 (alpha2B receptor) [µM] | EC50 (alpha2C receptor) [µM] | EC50 (alpha2A receptor) [µM] |
| --- | --- | --- | --- | --- | --- | --- | --- | --- | --- |
| Fc1ccccc1C(c1ccncc1)c1c[nH]cn1 (centres unmarked) [4-((2-fluorophenyl)(1H-imidazol-5-yl)methyl)pyridine] | 0.35 | 0.78 | 0.365 | 0.48 | > 10 | 0.04 | – | – | – |
| Clc1cccc(C(c2ccncc2)c2c[nH]cn2)c1Cl (centres unmarked) [4-((2,3-dichlorophenyl)(1H-imidazol-5-yl)methyl)pyridine] | 0.0032 | 1.31 | 0.097 | 0.72 | > 10 | 0.18 | – | – | – |
| Fc1cccc(C(c2cccnc2)c2c[nH]cn2)c1 (centres unmarked) [3-((3-fluorophenyl)(1H-imidazol-5-yl)methyl)pyridine] | 0.222 | 1.01 | 3.64 | 0.17 | > 10 | 0.05 | – | – | – |
| CC(C)c1ccc(C(c2c[nH]cn2)c2cccc(F)c2Cl)s1 (centres unmarked) | 0.075 | 0.40 | – | 0.23 | – | 0.06 | – | – | – |
| Fc1cccc(C(c2cccnc2)c2c[nH]cn2)c1Cl (centres unmarked) | 0.0048 | 0.98 | 0.088 | 0.87 | 3.37 | 0.32 | – | – | – |
| Fc1cccc(C(c2ccccn2)c2c[nH]cn2)c1 (centres unmarked) [2-((3-fluorophenyl)(1H-imidazol-5-yl)methyl)pyridine] | 0.273 | 0.64 | > 10 | 0.25 | > 10 | 0.14 | – | – | – |
| Fc1ccccc1C(c1cccnc1)c1c[nH]cn1 (centres unmarked) [3-((2-fluorophenyl)(1H-imidazol-5-yl)methyl)pyridine] | – | 0.60 | – | 0.55 | – | 0.7 | 0.251 | 2.48 | > 10 |
| Cc1cccc(C(c2ccccn2)c2c[nH]cn2)c1C (centres unmarked) [2-((2,3-dimethylphenyl)(1H-imidazol-4-yl)methyl)pyridine] | 0.00092 | 1.22 | 0.356 | 0.64 | 1.93 | 0.39 | – | – | – |
| Cc1ccccc1C(c1cccnc1)c1c[nH]cn1 (centres unmarked) [3-((2-methylphenyl)(1H-imidazol-5-yl)methyl)pyridine] | 0.259 | 0.61 | > 10 | 0.29 | > 10 | 0.06 | – | – | – |
| Fc1cccc(C(c2ccncc2)c2c[nH]cn2)c1 (centres unmarked) [4-((3-fluorophenyl)(1H-imidazol-5-yl)methyl)pyridine] | 0.562 | 0.93 | > 10 | 0.23 | > 10 | 0.04 | – | – | – |
| c1ccc(C(c2ccccn2)c2c[nH]cn2)cc1 (centres unmarked) [2-((phenyl)(1H-imidazol-5-yl)methyl)pyridine] | 0.469 | 0.87 | > 10 | 0.09 | > 10 | 0.04 | – | – | – |
| Fc1cccc(C(c2cccnc2)c2c[nH]cn2)c1F (centres unmarked) [3-((2,3-difluorophenyl)(1H-imidazol-5-yl)methyl)pyridine] | 0.068 | 0.93 | 0.656 | 0.85 | > 10 | 0.05 | – | – | – |
| Fc1c(Cl)cccc1C(c1c[nH]cn1)c1cccs1 (centres unmarked) | – | 0.93 | – | 0.28 | – | 0.21 | 0.046 | – | – |
| Fc1c(C(c2ccccn2)c2c[nH]cn2)cccc1C(F)(F)F (centres unmarked) [2-((2-fluoro-3-(trifluoromethyl)phenyl)(1H-imidazol-5-yl)methyl)pyridine] | 0.039 | 1.1 | 0.507 | 1.09 | > 10 | 0.08 | – | – | – |
| c1ccc(C(c2ccncc2)c2c[nH]cn2)cc1 (centres unmarked) [4-((phenyl)(1H-imidazol-5-yl)methyl)pyridine] | 0.309 | 0.69 | > 10 | 0.14 | > 10 | 0.10 | – | – | – |
| Clc1cccc(C(c2cccnc2)c2c[nH]cn2)c1Cl (centres unmarked) | 0.00162 | 1.15 | 0.112 | 0.87 | 0.605 | 0.37 | – | – | – |
